Source: patent US20260256751A1, “COMBINATION OF BETA-2-ADRENERGIC RECEPTOR AGONISTS AND GLP-1 RECEPTOR AGONISTS FOR USE IN TREATING HYPERGLYCAEMIA” (ATROGI AB, priority 2023, published 2026)

Columns and labels:
[1] = system: differentiated L6-myotubes; assay: Glucose uptake screen (Biological example 1 of WO 2019/053427); format: cell-based; conditions: compound at 10 μM, activity relative to isoproterenol at 10 μM; for Emax at 10 µM: read-out: Biological example 1 of WO 2019/053427 (GU)
Method in brief: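 Uptake was read out as ^3H-2-deoxyglucose (50 nM, 10 min) radioactivity in NaOH lysates. Beforehand, overnight-starved, differentiated L6 myotubes received compound at 1×10^−5 M with ICI-118551 present for 1 h 40 min, followed by fresh agonist for a further 20 min in glucose-free medium.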

[2] = system: differentiated L6-myotubes; assay: cAMP production relative to isoprenaline (Biological example 2 of WO 2019/053427); format: cell-based; conditions: compound at 10 μM, activity relative to isoproterenol at 10 μM; for Emax at 10 µM: 0.25 h
Method in brief: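 Values are cAMP levels relative to isoprenaline at equal concentration (final 1×10^−5 M for both). Stimulation lasted 15 min in differentiated L6 myotubes, using HBSS buffer (pH 7.4) containing 1 mM IBMX, 5 mM HEPES and 1% BSA.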

SMILES	Emax at 10 µM [1] [%]	Emax at 10 µM [2] [%]	Biological example 1 of WO 2019/053427 (GU) [1]	Biological example of WO 2019/053427 (cAMP) [2]
CCC[C@@H]1CCC[C@@H]([C@H](O)c2cccc(O)c2)N1 [Compound 136, (R)-[(2S,6R)-6-propyl-2-piperidyl](m-hydroxyphenyl)methanol]	> 75	< 25	–	–
CO[C@H]1CC[C@H](C(C)(C)NC[C@H](O)c2cccc(F)c2)CC1 [Compound 239, (R)-1-(m-fluorophenyl)-2-{1-methyl-1-[(1r,4R)-4-methoxycyclohexyl]ethyl-amino}-1-ethanol]	> 75	< 25	–	–
CC(C)(NC[C@H](O)c1cncc(F)c1)[C@H]1CC[C@H](C(=O)O)CC1 [Compound 390, (1R,4r)-8-[(R)-2-(5-fluoro-3-pyridyl)-2-hydroxyethylamino]-7-hydroxy-p-menthan-7-one]	50 to 75	< 25	–	–
O[C@@H](CNCC[C@H]1CC[C@@H](OCc2ccccc2)CC1)c1cncc(F)c1 [Compound 291, (R)-1-(5-fluoro-3-pyridyl)-2-{2-[(1s,4S)-4-(benzyloxy)cyclohexyl]ethylamino}-1-ethanol]	50 to 75	< 25	–	–
CC1(C)CC[C@H]([C@@H](O)c2ccccc2Cl)N1 [Compound 152]	–	–	+++ (more than 75% of that of isoproterenol at 10 μM)	− (less than 25%)
CC(C)(NC[C@H](O)c1cccc(F)c1)[C@H]1CC[C@@H](O)CC1 [Compound 284, (R)-1-(m-fluorophenyl)-2-{1-methyl-1-[(1s,4S)-4-hydroxycyclohexyl]ethyl-amino}-1-ethanol]	50 to 75	< 25	–	–
CS(=O)(=O)N[C@H]1CC[C@@H](C[C@@H]2CC[C@H]([C@H](O)c3cccc(F)c3)N2)CC1 [Compound 510, (R)-[(2R,5S)-5-{[(1s,4R)-4-(mesylamino)cyclohexyl]methyl}-2-pyrrolidinyl](m-fluorophenyl)methanol]	> 75	< 25	–	–
COc1ccc(CCC23CCC([C@@H](O)c4cccc(F)c4)(CC2)N3)cc1 [Compound 539, (S)-(m-fluorophenyl){4-[2-(p-methoxyphenyl)ethyl]-7-azabicyclo[2.2.1]hept-1-yl}methanol]	< 25	< 25	–	–
CC(C)(C[C@H]1CC[C@H](N)CC1)NC[C@@H](O)c1cccc(C#N)n1 [Compound 415, 6-[(R)-2-{1,1-dimethyl-2-[(1r,4R)-4-aminocyclohexyl]ethylamino}-1-hydroxyethyl]-2-pyridinecarbonitrile]	50 to 75	< 25	–	–
CC(C)(C[C@H]1CC[C@@H](S(N)(=O)=O)CC1)NC[C@H](O)c1cccc(F)c1 [Compound 517, (1S,4s)-4-{2-[(R)-2-(m-fluorophenyl)-2-hydroxyethylamino]-2-methylpropyl}cyclohexanesulfonamide]	25 to 50	< 25	–	–
CO[C@H]1CCC[C@@H](C(C)(C)NC[C@H](O)c2cccc(F)c2)C1 [Compound 256]	> 75	25 to 50	–	–
CCCCNCC(O)c1ccc(F)c(F)c1 (centres unmarked) [Compound 56, 2-(butylamino)-1-(3,4-difluorophenyl)-1-ethanol]	50 to 75	< 25	–	–
CC(C)(NC[C@H](O)c1cncc(F)c1)[C@H]1CC[C@H](O)CC1 [Compound 285, (R)-1-(5-fluoro-3-pyridyl)-2-{1-methyl-1-[(1r,4R)-4-hydroxycyclohexyl]ethyl-amino}-1-ethanol]	50 to 75	< 25	–	–
CC(C)(CC[C@H]1CC[C@H](O)CC1)NC[C@H](O)c1cncc(F)c1 [Compound 289, (R)-2-{1,1-dimethyl-3-[(1r,4S)-4-hydroxycyclohexyl]propyl-amino}-1-(5-fluoro-3-pyridyl)-1-ethanol]	25 to 50	< 25	–	–
CC(C)CS(=O)(=O)N[C@H]1CC[C@H](CC(C)(C)NC[C@H](O)c2cncc(F)c2)CC1 [Compound 526, (R)-2-{1,1-dimethyl-2-[(1r,4R)-4-(isobutylsulfonylamino)cyclohexyl]ethylamino}-1-(5-fluoro-3-pyridyl)-1-ethanol]	50 to 75	< 25	–	–
CC1(C)C[C@H]([C@@H](O)c2cccc(F)c2)N1 [Compound 201, (S)-[(R)-4,4-dimethyl-2-azetidinyl](m-fluorophenyl)methanol]	< 25	< 25	–	–
CO[C@H]1CC[C@H](C[C@@H]2CC[C@H]([C@H](O)c3cncc(F)c3)N2)CC1 [Compound 333, (R)-[(2R,5S)-5-{[(1r,4S)-4-methoxycyclohexyl]methyl}-2-pyrrolidinyl](5-fluoro-3-pyridyl)methanol]	25 to 50	< 25	–	–

SMILES	Emax at 10 µM [1] [%]	Emax at 10 µM [2] [%]	Biological example 1 of WO 2019/053427 (GU) [1]	Biological example of WO 2019/053427 (cAMP) [2]
O=C(N[C@H]1CC[C@H](CNC[C@H](O)c2cccc(F)c2)CC1)c1ccccc1 [Compound 315, N-[(1R,4r)-4-{[(R)-2-(m-fluorophenyl)-2-hydroxyethylamino]methyl}cyclohexyl]benzamide]	> 75	< 25	–	–
CC12CCC([C@H](O)c3ccccc3F)(CC1)N2 [Compound 181, (R)-(o-fluorophenyl)(4-methyl-7-azabicyclo[2.2.1]hept-1-yl)methanol]	> 75	< 25	–	–
CO[C@H]1CC[C@@H](CCNC[C@H](O)c2cccc(F)c2)CC1 [Compound 237, (R)-1-(m-fluorophenyl)-2-{2-[(1s,4S)-4-methoxycyclohexyl]ethyl-amino}-1-ethanol]	50 to 75	< 25	–	–
O[C@H](c1cccc(F)c1)C12CCC(CCc3ccc(OC(F)(F)F)cc3)(CC1)N2 [Compound 546, (R)-(m-fluorophenyl){4-[2-(p-trifluoromethoxyphenyl)ethyl]-7-azabicyclo[2.2.1]hept-1-yl}methanol]	< 25	< 25	–	–
CS(=O)(=O)N[C@H]1CC[C@@H](CNC[C@H](O)c2cccc(F)c2)CC1 [Compound 312, (R)-1-(m-fluorophenyl)-2-({[(1s,4S)-4-(mesylamino)cyclohexyl]methyl}amino)-1-ethanol]	50 to 75	< 25	–	–
CC(C)(C[C@H]1CC[C@H](NS(C)(=O)=O)CC1)NC[C@H](O)c1cccc(C#N)n1 [Compound 426, 6-[(S)-2-{1,1-dimethyl-2-[(1r,4S)-4-(mesylamino)cyclohexyl]ethylamino}-1-hydroxyethyl]-2-pyridinecarbonitrile]	> 75	< 25	–	–
O[C@@H](CNCCC[C@H]1CC[C@H](O)CC1)c1cncc(F)c1 [Compound 305, (R)-1-(5-fluoro-3-pyridyl)-2-{3-[(1r,4S)-4-hydroxycyclohexyl]propylamino}-1-ethanol]	25 to 50	< 25	–	–
O[C@@H](c1cccc(F)c1)C12CCC(COCc3ccc(Cl)cc3)(CC1)N2 [Compound 395, (S)-(4-{[(p-chlorophenyl)methoxy]methyl}-7-azabicyclo[2.2.1]hept-1-yl)(m-fluorophenyl)methanol]	50 to 75	< 25	–	–
CCC[C@H]1CCC[C@H]([C@@H](O)c2ccccc2F)N1 [Compound 106, (S)-[(2R,6S)-6-propyl-2-piperidyl](o-fluorophenyl)methanol]	25 to 50	< 25	–	–
CO[C@H]1CC[C@H](C[C@@H]2CC[C@H]([C@H](O)c3ccccc3F)N2)CC1 [Compound 337, (R)-[(2R,5S)-5-{[(1r,4S)-4-methoxycyclohexyl]methyl}-2-pyrrolidinyl](o-fluorophenyl)methanol]	> 75	< 25	–	–
CC(=O)N(Cc1ccccc1)[C@H]1CC[C@@H](C[C@@H]2CC[C@H]([C@H](O)c3cccc(F)c3)N2)CC1 [Compound 479, N-[(1R,4s)-4-({(2S,5R)-5-[(S)-(m-fluorophenyl)hydroxymethyl]-2-pyrrolidinyl}methyl)cyclohexyl]-N-benzylacetamide]	< 25	< 25	–	–
CCCCNC[C@H](O)c1cccc(F)c1 [Compound 47, (R)-2-(butylamino)-1-(m-fluorophenyl)-1-ethanol]	50 to 75	< 25	–	–
CCCCNCC(O)c1cc(F)cc(F)c1 (centres unmarked) [Compound 55, 2-(butylamino)-1-(3,5-difluorophenyl)-1-ethanol]	50 to 75	< 25	–	–
CO[C@H]1CC[C@@H](CCC(C)(C)NC[C@H](O)c2cccc(F)c2)CC1 [Compound 264, (R)-2-{1,1-dimethyl-3-[(1s,R)-4-methoxycyclohexyl]propyl-amino}-1-(m-fluorophenyl)-1-ethanol]	> 75	25 to 50	–	–
O[C@H](c1cncc(F)c1)C12CCC(CCc3ccc(OC(F)(F)F)cc3)(CC1)N2 [Compound 545, (R)-(5-fluoro-3-pryidyl){4-[2-(p-trifluoromethoxyphenyl)ethyl]-7-azabicyclo[2.2.1]hept-1-yl}methanol]	< 25	< 25	–	–
CC12CCC([C@@H](O)c3ccccc3Cl)(CC1)N2 [Compound 194, (S)-(o-chlorophenyl)(4-methyl-7-azabicyclo[2.2.1]hept-1-yl)methanol]	> 75	< 25	–	–
CC1(C)CC[C@H]([C@H](O)c2cccc(F)c2)N1 [Compound 110, (R)-[(R)-5,5-dimethyl-2-pyrrolidinyl](m-fluorophenyl)methanol]	> 75	< 25	–	–
